Patent US10328075B2, “Method of treatment and compounds for use therein” (Baker Heart and Diabetes Institute, priority 2015, dated 2019)

Tested on: adult mouse cardiac fibroblasts
Assay: TGF-β stimulation of adult mouse cardiac fibroblasts, CTGF and IL-1β expression
Type: cell-based
Conditions: 10 μM, 24 h TGF-β
Description: Isolation and culture of primary rat cardiomyocytes and mouse cardiac fibroblasts: All materials used for cell isolation were of tissue culture grade. Isolation of primary neonatal rat cardiac cardiomyocytes (NRCM) and adult mouse cardiac fibroblasts (AMCF) was performed by serial enzymatic digestion, as previously described (Irvine et al 2012 & Irvine et al. 3) NRCM were plated onto either 12-well tissue culture plates (for simulated ischemia-reperfusion, via hypoxia-reoxygenation, H-R) or 60 mm tissue culture dishes (for gene expression) at a density of 1.3×10^5 cells/cm^2, in the presence of 1% 5-bromo-2′-deoxyuridine. AMCF (passage #3) were seeded onto 60 mm tissue culture dishes at 9.5×10^4 cells/cm^2 and allowed to grow to 80% confluence prior to study. […] At the end of hypoxia, Kreb's buffer was replaced with fresh, sterile-filtered Kreb's buffer, in the presence or absence of FPR agonists Cmpd17b, Cmpd43 (both 1 μM or vehicle, and NRCM were subjected to 48 h reoxygenation at 37° C. At the end of 48 h reoxygenation, NRCM supernatant was collected for assessment of cardiomyocyte injury. Cardiomyocyte release of cTnI was determined using a commercially available, high-sensitivity rat cTnI ELISA kit (Life Diagnostic Inc.) as per the manufacturer's instructions. Separate NRVM on 60 mm dishes were incubated for 48 h at 37° C. in serum-free DMEM, in the presence or absence of FPR agonists Cmpd17b, Cmpd43 (both 1 μM) or vehicle. At the end of 48 h, RNA was extracted and real-time PCR performed (as described previously (Huynh et al. 2012)), to determine the relative gene expression of rat Fprs (rFpr1, rFpr2 and rFpr3, expressed as the threshold cycle number Ct subtracted from the maximum cycle number utilized, 40). […]
Cardiomyocytes injury responses in vitro: Neonatal rat cardiomyocytes and adult mouse cardiofibroblasts were isolated and cultured as described (online Supplement). […] Cardiomyocyte injury was assessed by measurement of cardiac cTnI in cardiomyocyte supernatant. […]

Row | SMILES | Pro-fibrotic CTGF response to TGF-β in cardiofibroblasts | TGF-β-induced pro-inflammatory IL-1β response in cardiofibroblasts
1 | CC(C)C1C(NC(=O)Nc2ccc(Cl)cc2)C(=O)N(c2ccccc2)N1C (stereo not drawn) [BIDI-002] | remained significant | tended to persist
2 | COc1cccc(Cc2cc(C)nn(C(C)C(=O)Nc3ccc(Br)cc3)c2=O)c1 (stereo not drawn) [BIDI-001, N-(4-bromophenyl)-2-[5-(3-methoxybenzyl)-3-methyl-6-oxo-6H-pyridazin-1-yl]-propionamide] |  | not
